In ChEMBL document CHEMBL1201862, “PubChem BioAssay data set” (2004):
Active and inactive are the calls of the source.

Assays:
[1] = Vero cell cytotoxicity, dose response, cytotoxicity control for Vif-APOBEC3G degradation inhibitor project, Vero cells (AID 1117358); type: functional; conditions: Human immunodeficiency virus 1, Vero
[2] = target: Dual specificity protein kinase CLK1 (Homo sapiens, UniProt P49759); experiment: CLK1 kinase inhibitors, off-target check, dose response, selectivity assay for Dyrk1A inhibitor project, biochemical, cherry-picked samples (AID 588811)
[3] = target: Dual specificity tyrosine-phosphorylation-regulated kinase 1A (Rattus norvegicus, UniProt Q63470); type: biochemical, Homo sapiens
[4] = target: T1, Tyrosine-protein phosphatase non-receptor type 7 (Homo sapiens, UniProt P35236); type: functional
T1 sequence (P35236 whole entry): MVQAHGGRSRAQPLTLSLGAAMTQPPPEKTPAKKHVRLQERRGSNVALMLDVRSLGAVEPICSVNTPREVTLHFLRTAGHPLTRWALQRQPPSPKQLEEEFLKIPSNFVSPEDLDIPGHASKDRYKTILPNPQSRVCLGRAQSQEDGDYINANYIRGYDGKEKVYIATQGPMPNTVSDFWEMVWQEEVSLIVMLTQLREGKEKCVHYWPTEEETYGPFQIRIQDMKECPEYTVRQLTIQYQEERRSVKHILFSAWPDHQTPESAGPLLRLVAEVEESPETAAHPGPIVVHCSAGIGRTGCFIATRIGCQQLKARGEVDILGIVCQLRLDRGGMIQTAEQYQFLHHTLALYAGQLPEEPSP

[5] = target: Glyceraldehyde-3-phosphate dehydrogenase (Homo sapiens, UniProt P04406)
[6] = target: T2, Dual specificity protein phosphatase 6 (Rattus norvegicus, UniProt Q64346); type: functional
T2 sequence (Q64346 whole entry): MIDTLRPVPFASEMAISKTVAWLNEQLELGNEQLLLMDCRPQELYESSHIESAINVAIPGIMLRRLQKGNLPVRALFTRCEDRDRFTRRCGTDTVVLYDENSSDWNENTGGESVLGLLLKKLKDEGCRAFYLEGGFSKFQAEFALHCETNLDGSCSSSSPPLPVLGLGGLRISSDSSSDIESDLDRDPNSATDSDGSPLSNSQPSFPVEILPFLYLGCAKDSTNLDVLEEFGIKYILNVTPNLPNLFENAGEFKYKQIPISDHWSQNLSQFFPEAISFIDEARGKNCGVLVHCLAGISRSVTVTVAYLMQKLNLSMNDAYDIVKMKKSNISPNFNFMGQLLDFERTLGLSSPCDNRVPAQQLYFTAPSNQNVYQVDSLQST

[7] = target: T2, Dual specificity protein phosphatase 6
[8] = target: Heat shock 70 kDa protein 1A (Homo sapiens, UniProt P0DMV8); experiment: Hsp70 inhibitors, SAR follow-up, biochemical, fluorescence polarization (AID 1072)
[9] = target: Heat shock cognate 71 kDa protein (Homo sapiens, UniProt P11142); experiment: In Vitro Hsc70 Dose Response Fluorescence Polarization Assay. [Related pubchem assays: 1072 ]
[10] = Luminescence Cell-Based Dose Retest to Confirm Inhibitors of Cancer Stem Cells. [Related pubchem assays (depositor defined):AID2717, AID2721]; type: functional; conditions: Homo sapiens
[11] = target: Matrix metalloproteinase-14 (Homo sapiens, UniProt P50281); experiment: Dose Response confirmation of uHTS hits for a small molecule inhibitors of MT1-MMP activation in a fluorescence assay set 2.; type: functional
[12] = cytotoxicity in HMLE control line with eGFP shRNA, dose response, counter-screen for HMLE_sh_ECad selective toxicity project, cell-based, HMLE_sh_eGFP, luminescence (AID 463074); type: functional, Homo sapiens;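 further: HMLE human mammary epithelial cells expressing control shRNA against eGFP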
[13] = target: FAD-linked sulfhydryl oxidase ALR (Homo sapiens, UniProt P55789); experiment: inhibitors of human ALR sulfhydryl oxidase, dose response, biochemical, H2O2 detection, luminescence, cherry-pick (AID 493248)
Phospholipase D2 [14] = target: T3, Phospholipase D2 (Homo sapiens, UniProt O14939); experiment: PLD2 purified enzyme concentration response. [Related pubchem assays (depositor defined):AID588854]; type: functional
Phospholipase D1 = Phospholipase D1 (Homo sapiens, UniProt Q13393); experiment: PLD1 purified enzyme concentration response. [Related pubchem assays (depositor defined):AID588854]; type: functional
Phospholipase D2 [15] = target: T3, Phospholipase D2; experiment: PLD2 inhibitor potency in cells, dose response (AID 602147); type: functional;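 further: cellular assay in HEK293 cells overexpressing GFP-tagged PLD2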
HEK293 [16] = experiment: SAR Analysis of small molecule inhibitors of B-cell specific antigen receptor-induced NF-kB activation in a HEK-293T cell line using a luminescence assay - Set 2. [Related pubchem assays (depositor defined):AID435022, AID435025, AID489021]; type: functional, cell-based; conditions: Homo sapiens
Jurkat = experiment: SAR Analysis of small molecule inhibitors of […] specific antigen receptor-induced NF-kB activation in a Jurkat cell line using a luminescence assay - Set 3. [Related pubchem assays (depositor defined):AID435022, AID435025, AID465]; type: functional, cell-based; conditions: Homo sapiens
HEK293 [17] = experiment: cytotoxicity in HEK293T NF-kB-Luc cells, SAR follow-up, cytotoxicity control for NF-kB activator project, cell-based, resazurin fluorescence (AID 493251); type: functional; conditions: Homo sapiens
Hexokinase HKDC1 = target: T4, Hexokinase HKDC1 (Homo sapiens, UniProt Q2TB90); experiment: SAR analysis of small molecule inhibitors of hexokinase domain containing I (HKDC1). [Related pubchem assays (depositor defined):AID493160, AID493190]; type: functional
T4 sequence (Q2TB90 whole entry): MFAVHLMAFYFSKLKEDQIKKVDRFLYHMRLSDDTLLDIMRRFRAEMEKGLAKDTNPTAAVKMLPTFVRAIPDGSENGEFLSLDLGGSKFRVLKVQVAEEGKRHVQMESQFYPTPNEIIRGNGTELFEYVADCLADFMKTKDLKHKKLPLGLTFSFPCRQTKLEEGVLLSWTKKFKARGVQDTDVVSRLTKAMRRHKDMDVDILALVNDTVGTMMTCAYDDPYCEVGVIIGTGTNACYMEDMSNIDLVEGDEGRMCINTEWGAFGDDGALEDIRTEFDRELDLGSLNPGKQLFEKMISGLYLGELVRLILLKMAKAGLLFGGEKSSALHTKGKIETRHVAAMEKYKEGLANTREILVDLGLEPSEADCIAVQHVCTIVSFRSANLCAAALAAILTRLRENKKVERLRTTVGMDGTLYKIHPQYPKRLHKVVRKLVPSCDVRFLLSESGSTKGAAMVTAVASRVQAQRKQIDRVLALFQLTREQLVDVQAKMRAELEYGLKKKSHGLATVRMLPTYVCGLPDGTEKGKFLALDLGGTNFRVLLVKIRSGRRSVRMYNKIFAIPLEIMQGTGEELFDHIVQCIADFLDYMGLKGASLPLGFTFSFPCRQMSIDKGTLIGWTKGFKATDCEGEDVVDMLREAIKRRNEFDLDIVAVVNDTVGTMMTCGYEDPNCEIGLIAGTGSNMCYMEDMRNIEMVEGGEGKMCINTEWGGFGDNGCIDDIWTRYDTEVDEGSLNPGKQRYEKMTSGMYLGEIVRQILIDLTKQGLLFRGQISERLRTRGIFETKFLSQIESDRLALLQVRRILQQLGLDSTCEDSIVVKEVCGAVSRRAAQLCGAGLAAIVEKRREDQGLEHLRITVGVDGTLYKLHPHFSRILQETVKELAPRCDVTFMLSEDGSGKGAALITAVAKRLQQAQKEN

Hexokinase-1 = target: T5, Hexokinase-1 (Homo sapiens, UniProt P19367); experiment: SAR analysis of small molecule inhibitors of hexokinase domain containing I (HKDC1) in the hexokinase 1 selectivity assay. [Related pubchem assays (depositor defined):AID493160, AID493190]; type: functional
T5 sequence (P19367 whole entry): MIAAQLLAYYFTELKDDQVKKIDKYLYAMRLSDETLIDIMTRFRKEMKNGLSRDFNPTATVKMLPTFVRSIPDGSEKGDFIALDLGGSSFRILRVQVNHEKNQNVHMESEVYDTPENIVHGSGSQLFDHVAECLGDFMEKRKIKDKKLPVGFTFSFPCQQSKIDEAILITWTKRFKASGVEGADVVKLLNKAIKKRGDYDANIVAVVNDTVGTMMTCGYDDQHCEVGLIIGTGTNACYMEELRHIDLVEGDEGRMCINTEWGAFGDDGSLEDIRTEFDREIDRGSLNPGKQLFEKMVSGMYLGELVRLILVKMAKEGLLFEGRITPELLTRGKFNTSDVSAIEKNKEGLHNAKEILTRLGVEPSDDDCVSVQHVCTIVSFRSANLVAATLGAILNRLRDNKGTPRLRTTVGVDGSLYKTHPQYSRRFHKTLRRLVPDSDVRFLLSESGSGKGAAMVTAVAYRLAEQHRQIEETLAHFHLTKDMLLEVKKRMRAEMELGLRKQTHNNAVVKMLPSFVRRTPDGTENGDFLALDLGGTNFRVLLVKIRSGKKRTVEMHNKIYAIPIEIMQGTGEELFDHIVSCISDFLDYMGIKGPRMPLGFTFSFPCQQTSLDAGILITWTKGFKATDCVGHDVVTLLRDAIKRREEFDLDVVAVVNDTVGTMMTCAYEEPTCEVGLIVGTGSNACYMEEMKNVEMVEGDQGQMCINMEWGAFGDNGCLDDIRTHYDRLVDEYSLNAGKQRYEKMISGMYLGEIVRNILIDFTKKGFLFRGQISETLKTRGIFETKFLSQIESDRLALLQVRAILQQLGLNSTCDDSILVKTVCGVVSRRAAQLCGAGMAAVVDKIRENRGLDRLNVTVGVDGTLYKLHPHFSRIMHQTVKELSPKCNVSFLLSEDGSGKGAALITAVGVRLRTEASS

HEK293 [18] = experiment: cells; type: functional, cell-based; conditions: Homo sapiens
[19] = target: T6, Nuclear receptor subfamily 0 group B member 1 (Homo sapiens, UniProt P51843); experiment: Luminescence-based cell-based high throughput dose response assay for inhibitors of the orphan nuclear receptor subfamily 0, group B, member 1 (DAX1; NR0B1). [Related pubchem assays (depositor defined):AID504766, AID504790]; type: functional
T6 sequence (P51843 whole entry): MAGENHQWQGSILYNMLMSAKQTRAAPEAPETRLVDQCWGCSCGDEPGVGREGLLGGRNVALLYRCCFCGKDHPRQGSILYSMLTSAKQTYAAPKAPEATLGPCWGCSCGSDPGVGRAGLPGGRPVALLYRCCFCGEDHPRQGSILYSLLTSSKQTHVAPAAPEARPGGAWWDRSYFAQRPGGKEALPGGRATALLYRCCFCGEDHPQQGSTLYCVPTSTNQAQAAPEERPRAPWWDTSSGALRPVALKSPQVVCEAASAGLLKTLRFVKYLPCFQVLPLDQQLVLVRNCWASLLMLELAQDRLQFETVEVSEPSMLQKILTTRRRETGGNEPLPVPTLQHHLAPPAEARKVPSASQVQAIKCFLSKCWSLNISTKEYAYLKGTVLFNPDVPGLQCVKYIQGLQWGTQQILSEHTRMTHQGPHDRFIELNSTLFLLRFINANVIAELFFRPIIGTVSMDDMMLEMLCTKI

[20] = target: Beta-2 adrenergic receptor (Homo sapiens, UniProt P07550); experiment: beta2AR agonists driving receptor internalization, dose response, cell-based, FAP fluorogen, flow cytometry, cherry pick 1 (AID 588763); type: functional
A-375 [21] = experiment: A375 melanoma cell viability reduction, dose response, counter-screen for MITF modulator project, cherry-pick samples, set 2 (AID 540335); type: functional, cell-based; conditions: Homo sapiens
A-375 [22] = experiment: MITF: Counter assay: A375 proliferation Measured in Cell-Based System Using Plate Reader - 2084-03_Inhibitor_Dose_DryPowder_Activity. [Related pubchem assays (depositor defined):AID488944]; type: functional; conditions: Homo sapiens

T3 sequence (O14939 whole entry): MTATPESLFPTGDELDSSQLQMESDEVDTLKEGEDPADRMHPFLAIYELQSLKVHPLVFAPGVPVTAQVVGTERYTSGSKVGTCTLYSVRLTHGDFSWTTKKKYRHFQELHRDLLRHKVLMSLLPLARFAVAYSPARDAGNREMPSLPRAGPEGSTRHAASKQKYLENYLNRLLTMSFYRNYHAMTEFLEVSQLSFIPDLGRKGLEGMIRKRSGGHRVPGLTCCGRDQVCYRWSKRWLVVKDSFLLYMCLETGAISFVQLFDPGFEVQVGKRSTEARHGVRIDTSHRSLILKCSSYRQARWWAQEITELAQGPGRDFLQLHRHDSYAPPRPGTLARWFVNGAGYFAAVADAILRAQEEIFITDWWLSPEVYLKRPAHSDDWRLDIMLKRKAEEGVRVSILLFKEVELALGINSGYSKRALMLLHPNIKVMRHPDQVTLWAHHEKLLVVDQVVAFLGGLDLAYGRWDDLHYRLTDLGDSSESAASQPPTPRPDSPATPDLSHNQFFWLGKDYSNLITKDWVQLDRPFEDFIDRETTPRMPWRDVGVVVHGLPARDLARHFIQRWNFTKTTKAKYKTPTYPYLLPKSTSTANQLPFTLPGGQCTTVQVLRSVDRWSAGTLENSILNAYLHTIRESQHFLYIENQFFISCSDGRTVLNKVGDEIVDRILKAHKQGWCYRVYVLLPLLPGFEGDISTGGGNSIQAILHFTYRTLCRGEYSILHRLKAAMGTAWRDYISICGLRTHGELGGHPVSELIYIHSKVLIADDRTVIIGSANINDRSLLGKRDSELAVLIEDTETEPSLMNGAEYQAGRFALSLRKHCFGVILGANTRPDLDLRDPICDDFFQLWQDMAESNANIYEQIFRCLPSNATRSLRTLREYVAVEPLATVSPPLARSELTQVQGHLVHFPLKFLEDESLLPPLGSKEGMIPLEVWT
Heat shock 70 kDa protein 1A, sequence (P0DMV8 whole entry): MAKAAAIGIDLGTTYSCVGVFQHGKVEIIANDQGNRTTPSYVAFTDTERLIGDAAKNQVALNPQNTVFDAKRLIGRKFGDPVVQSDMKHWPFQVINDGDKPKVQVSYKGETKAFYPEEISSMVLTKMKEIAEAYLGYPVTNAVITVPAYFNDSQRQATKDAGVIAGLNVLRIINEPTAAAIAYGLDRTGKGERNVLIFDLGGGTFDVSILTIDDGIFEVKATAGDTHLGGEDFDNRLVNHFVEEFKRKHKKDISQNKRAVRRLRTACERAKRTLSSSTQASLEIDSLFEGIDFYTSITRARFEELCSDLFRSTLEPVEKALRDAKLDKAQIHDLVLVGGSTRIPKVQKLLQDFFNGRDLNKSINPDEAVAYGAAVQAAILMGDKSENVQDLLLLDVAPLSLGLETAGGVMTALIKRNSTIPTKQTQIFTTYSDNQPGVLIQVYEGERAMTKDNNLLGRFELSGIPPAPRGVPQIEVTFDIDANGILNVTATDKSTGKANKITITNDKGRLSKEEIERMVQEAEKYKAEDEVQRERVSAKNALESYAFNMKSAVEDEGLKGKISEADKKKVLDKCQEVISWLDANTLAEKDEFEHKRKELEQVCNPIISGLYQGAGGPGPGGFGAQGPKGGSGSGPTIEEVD
Glyceraldehyde-3-phosphate dehydrogenase, sequence (P04406 whole entry): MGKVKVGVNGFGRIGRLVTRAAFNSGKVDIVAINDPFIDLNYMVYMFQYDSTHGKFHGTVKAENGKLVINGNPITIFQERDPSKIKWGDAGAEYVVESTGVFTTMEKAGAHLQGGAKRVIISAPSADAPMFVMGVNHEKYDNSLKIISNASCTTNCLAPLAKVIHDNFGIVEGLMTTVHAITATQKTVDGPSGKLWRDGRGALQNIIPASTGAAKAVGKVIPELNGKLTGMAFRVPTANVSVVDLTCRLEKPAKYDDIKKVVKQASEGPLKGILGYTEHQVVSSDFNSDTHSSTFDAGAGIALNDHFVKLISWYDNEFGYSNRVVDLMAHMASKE
Heat shock cognate 71 kDa protein, sequence (P11142 whole entry): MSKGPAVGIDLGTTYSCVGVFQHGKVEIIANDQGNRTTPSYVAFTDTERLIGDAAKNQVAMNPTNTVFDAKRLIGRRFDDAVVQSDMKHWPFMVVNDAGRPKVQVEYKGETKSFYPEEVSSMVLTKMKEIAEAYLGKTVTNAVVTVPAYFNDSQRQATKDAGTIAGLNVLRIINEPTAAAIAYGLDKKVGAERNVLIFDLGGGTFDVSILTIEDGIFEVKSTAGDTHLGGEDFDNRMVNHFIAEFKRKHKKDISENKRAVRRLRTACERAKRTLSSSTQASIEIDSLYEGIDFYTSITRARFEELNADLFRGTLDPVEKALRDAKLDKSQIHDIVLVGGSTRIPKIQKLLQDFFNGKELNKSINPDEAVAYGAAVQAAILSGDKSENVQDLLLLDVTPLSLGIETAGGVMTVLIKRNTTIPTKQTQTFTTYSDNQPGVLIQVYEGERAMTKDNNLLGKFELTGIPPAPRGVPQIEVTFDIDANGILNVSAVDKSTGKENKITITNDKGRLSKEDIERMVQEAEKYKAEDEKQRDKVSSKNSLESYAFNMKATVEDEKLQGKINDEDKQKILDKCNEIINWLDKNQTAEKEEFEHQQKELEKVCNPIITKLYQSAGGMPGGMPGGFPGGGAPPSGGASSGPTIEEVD
Beta-2 adrenergic receptor, sequence (P07550 whole entry): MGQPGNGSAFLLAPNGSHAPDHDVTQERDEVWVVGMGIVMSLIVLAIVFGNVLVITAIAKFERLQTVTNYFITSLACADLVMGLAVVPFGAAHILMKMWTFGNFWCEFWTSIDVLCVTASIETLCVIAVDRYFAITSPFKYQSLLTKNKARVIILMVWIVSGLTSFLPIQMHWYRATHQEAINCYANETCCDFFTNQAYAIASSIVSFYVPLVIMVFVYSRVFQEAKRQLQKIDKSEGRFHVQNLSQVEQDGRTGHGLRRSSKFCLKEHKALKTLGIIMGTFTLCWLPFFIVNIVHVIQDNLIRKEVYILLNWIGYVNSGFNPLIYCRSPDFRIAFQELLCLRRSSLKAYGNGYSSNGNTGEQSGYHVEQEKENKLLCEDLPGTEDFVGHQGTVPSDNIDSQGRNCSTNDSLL
FAD-linked sulfhydryl oxidase ALR, sequence (P55789 whole entry): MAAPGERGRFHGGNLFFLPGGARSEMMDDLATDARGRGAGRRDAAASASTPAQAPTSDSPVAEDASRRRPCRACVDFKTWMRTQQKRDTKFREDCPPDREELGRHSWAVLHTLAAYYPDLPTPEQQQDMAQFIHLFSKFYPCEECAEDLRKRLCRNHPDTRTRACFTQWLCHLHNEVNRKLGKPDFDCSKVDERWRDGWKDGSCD
Phospholipase D1, sequence (Q13393 whole entry): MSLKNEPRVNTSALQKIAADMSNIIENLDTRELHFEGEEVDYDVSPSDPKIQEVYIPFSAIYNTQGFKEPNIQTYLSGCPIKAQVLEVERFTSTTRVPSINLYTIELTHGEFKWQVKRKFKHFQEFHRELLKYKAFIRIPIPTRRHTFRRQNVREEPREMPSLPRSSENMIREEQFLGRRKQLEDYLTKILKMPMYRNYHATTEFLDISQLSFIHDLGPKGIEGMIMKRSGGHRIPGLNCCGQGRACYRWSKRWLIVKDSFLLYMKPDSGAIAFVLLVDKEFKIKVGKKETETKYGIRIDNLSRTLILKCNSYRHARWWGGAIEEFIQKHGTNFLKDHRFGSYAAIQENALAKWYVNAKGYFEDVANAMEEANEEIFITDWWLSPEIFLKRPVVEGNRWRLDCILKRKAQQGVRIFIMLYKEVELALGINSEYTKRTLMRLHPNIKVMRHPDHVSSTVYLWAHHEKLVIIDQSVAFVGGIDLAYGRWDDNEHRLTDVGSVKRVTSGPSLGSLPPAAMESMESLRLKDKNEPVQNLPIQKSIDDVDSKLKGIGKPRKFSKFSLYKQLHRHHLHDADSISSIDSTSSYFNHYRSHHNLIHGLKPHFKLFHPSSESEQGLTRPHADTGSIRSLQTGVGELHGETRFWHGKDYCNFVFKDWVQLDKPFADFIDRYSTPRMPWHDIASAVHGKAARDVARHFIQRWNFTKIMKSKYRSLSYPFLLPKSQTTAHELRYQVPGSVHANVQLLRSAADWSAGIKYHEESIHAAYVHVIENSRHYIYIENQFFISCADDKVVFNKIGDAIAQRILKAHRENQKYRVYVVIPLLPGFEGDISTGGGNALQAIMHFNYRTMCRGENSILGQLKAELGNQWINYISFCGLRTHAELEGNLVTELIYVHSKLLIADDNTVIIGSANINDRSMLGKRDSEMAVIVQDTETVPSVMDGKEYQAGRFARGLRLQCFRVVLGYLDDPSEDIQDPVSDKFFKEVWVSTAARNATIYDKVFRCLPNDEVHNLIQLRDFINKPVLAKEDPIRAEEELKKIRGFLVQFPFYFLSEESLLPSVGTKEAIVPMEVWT
Dual specificity protein kinase CLK1, sequence (P49759 whole entry): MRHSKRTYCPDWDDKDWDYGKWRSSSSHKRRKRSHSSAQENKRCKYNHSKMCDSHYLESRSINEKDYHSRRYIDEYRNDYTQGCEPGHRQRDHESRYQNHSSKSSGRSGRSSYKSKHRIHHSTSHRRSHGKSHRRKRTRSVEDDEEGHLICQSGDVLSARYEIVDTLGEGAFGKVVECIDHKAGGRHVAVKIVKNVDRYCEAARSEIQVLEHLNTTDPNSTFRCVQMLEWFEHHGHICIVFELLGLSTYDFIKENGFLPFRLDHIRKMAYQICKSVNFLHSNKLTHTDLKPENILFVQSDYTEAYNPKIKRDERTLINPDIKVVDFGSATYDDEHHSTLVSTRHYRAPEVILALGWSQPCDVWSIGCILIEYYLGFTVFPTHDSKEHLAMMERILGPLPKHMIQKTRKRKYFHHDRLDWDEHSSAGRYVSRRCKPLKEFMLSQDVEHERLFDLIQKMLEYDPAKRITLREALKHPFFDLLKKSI

Q: What does the source list for `O=C(Nc1nc2ccc(Cl)cc2s1)C1CCCO1` (stereo unspecified)?
A: CC50 [1]: > 40 µM (active); AC50 [2]: 2.03 µM (active); AC50 [3]: 2.01 µM (active)

Q: Which IC50 [4] does the source give for `Cc1cc(I)cc2c1NC(C(=O)O)C1CC=CC21` (stereo unspecified) here?
A: Its IC50 is > 100 µM (not active).

Q: And the IC50 [5]?
A: The IC50 was > 100 µM (not active).

Q: What about the IC50 [6] of the same compound?
A: Its IC50 is > 100 µM (inactive).

Q: And the IC50 [7]?
A: The IC50 was > 100 µM (inactive).

Q: And the IC50 [8]?
A: Its IC50 is > 100 µM (not active).

Q: What about the IC50 [9] of the same compound?
A: The IC50 was > 100 µM (not active).

Q: Which AC50 [10] does the source give for `O=C(NNc1c2ccccc2nc2ccccc12)c1ccccc1O` here?
A: The AC50 was 18.3 µM (active).

Q: What about the IC50 [11] of the same compound?
A: Its IC50 is 60.8 µM (inactive).

Q: What about the AC50 [12] of the same compound?
A: The AC50 was 22.8 µM (active).

Q: And the AC50 [13]?
A: Its AC50 is 0.08 µM (active).

Q: With `O=C(NCCN1CCC2(CC1)C(=O)NCN2c1ccc(F)cc1)c1cc2cc(F)ccc2[nH]1` as the compound, how does the IC50 (Phospholipase D2 [14]) read?
A: The IC50 was 0.066 µM (active).

Q: What about the IC50 (Phospholipase D1) of the same compound?
A: Its IC50 is 5.5 µM (active).

Q: And the IC50 (Phospholipase D2 [15])?
A: Its IC50 is 0.027 µM (active).

Q: What does the source list for `CCOc1ccc(-c2nc(CSCC(=O)NCc3ccccc3)c(C)o2)cc1`?
A: IC50 (HEK293 [16]): 21.6 µM (inactive); IC50 (Jurkat): > 80 µM (inactive); IC50 (HEK293 [17]): 49.3 µM (inactive)

Q: For `O=c1c2ccccc2nc(/C=C/c2ccccc2)n1-c1ccccc1`, which IC50 (Hexokinase HKDC1) is on record?
A: Its IC50 is > 80 µM (inactive).

Q: What about the IC50 (Hexokinase-1) of the same compound?
A: The IC50 was > 80 µM (inactive).

Q: With `O=C(CSc1nnc(NC2CCCCC2)s1)Nc1ccc2c(c1)C(=O)c1ccccc1C2=O` as the compound, how does the IC50 (HEK293 [18]) read?
A: The IC50 was > 67.5 µM (inactive).

Q: And the IC50 [19]?
A: The IC50 was > 67.5 µM (inactive).

Q: For `O=C(CCCCCn1c(=O)[nH]c2ccsc2c1=O)NCc1ccc2c(c1)OCO2`, which EC50 [20] is on record?
A: The EC50 was 0.0393 µM (active).

Q: For `CC(=O)c1ccc(N/C=C/C(=O)c2ccc(Br)cc2)cc1`, which AC50 (A-375 [21]) is on record?
A: Its AC50 is > 35 µM (active).

Q: What about the AC50 (A-375 [22]) of the same compound?
A: The AC50 was > 35 µM (active).
